The source of these data is patent US11229657B2, “Targeting hypoxic cancer stem cells (CSCs) with doxycycline: implications for improving anti-angiogenic therapy” (LUNELLA BIOTECH, INC., priority 2017, dated 2022).

Like-named read-outs stand apart in the source and are kept apart here.

Common to all, as to type: cell-based
In one test the test system is CSC propagation. Put plainly: IC-50s of metabolic agents for inhibiting CSC propagation (Table 3). The conditions noted are these: read-out: IC-50 for inhibiting CSC propagation. Here is the method: Glycolysis is required to provide additional TCA cycle intermediates for the mitochondrial processing of Acetyl-CoA. […] Briefly, 2-deoxy-D-glucose (2-DG) or ascorbic acid were dissolved in culture medium. […] Bonuccelli et al. Oncotarget, 8: 20667-20678 (2017). […] 15, 2017, and Patent Cooperation Treaty (PCT) Patent Application PCT/US2018/022403, filed Mar. 14, 2018, the entireties of which are incorporated herein by reference; mitoketoscins, such as those disclosed in U.S. Provisional Patent Application No. 62/524,829, filed Jun. 26, 2017, the entirety of which is incorporated herein by reference; mitoflavoscins, such as those disclosed in U.S. Provisional Patent Application No. 62/576,287, filed Oct. 24, 2017, the entirety of which is incorporated herein by reference; TPP-compounds (e.g., 2-butene-1,4-bis-TPP), such as those disclosed in U.S. Provisional Patent Application No. 62/590,432, filed Nov. 24, 2017, the entirety of which is incorporated herein by reference; mDIVI1, such as those disclosed in U.S. Provisional Patent Application No. 62/608,065, filed Dec. 20, 2017, the entirety of which is incorporated herein by reference; CAPE (caffeic acid phenyl ester); antimitoscins, such as those disclosed in 62/508,702, filed May 19, 2017, the entirety of which is incorporated herein by reference; repurposcins such as those disclosed in U.S. Provisional Patent Application No. 62/593,372, filed Dec. 1, 2017, the entirety of which is incorporated herein by reference; other known mitochondrial inhibitors.

Test [1] concerns MCF7 cells. Put plainly: Mammosphere formation assay (CSC activity/propagation). The settings on record: for basal and Valproic acid-augmented CSC propagation (mammosphere formation): FIG. 12A-B; for IC50: Homo sapiens, MCF7, Valproic acid-augmented conditions, read-out: IC-50, Valproic acid-augmented CSC propagation; for IC50 / Valproic acid-augmented CSC propagation (mammosphere formation): FIG. 12C; for Valproic acid-augmented CSC propagation (mammosphere formation): glycolysis inhibitors.
Protocol: Briefly, a single cell suspension of MCF7 cells previously exposed to normoxia (21% O2) or hypoxia (1% O2) for 6 h, 72 h or 96 h was prepared using enzymatic (lx Trypsin-EDTA, Sigma Aldrich) and manual disaggregation (25-gauge needle). Cells were plated at a density of 500 cells/cm^2 in mammosphere medium (DMEM-F12/B27/20-ng/ml EGF/PenStrep) in nonadherent conditions, in culture dishes coated with (2-hydroxyethylmethacrylate) (poly-HEMA, Sigma), in the presence of treatments. Cells were grown for 5 days and maintained in a humidified incubator at 37° C. at an atmospheric pressure in 5% (v/v) carbon dioxide/air. After five days of culturing, spheres greater than 50 μm in diameter were counted using an eye piece graticule, and the percentage of cells plated which formed spheres was calculated. Mammosphere assays were performed in triplicate and repeated three times independently.

Test [2] has as its system MCF7 cells. Put plainly: Mitochondrial mass by FACS with MitoTracker Deep-Red-FM. The conditions noted are these: increasing concentrations 0, 1, 2.5 and 5 mM; FIG. 11A. As for the experimental part: The inventors examined the effects of chronic hypoxia and oxidative stress on the propagation of breast CSCs using MCF7 cells as a model system. It should be appreciated that other model systems may be used. Briefly, MCF7 cells were obtained from ATCC and cultured in DMEM (Sigma Aldrich). For hypoxic testing, MCF7 cells were cultured in low glucose DMEM in a multi-gas N2/CO2 hypoxic chamber at 1% 02. In parallel, MCF7 cells were cultured in low glucose DMEM at 21% 02 to serve as a normoxic control. […] Next, the MCF7 cells were trypsinized and subjected to fluorescence-activated cell sorting (FACS) with MitoTracker Deep-Red-FM (Life Technologies). MitoTracker Deep Red localizes to mitochondria regardless of mitochondrial membrane potential. Cells were incubated with pre-warmed MitoTracker staining solution (diluted in PBS/CM to a final concentration of 10 nM) for 30-60 min at 37° C. All subsequent steps were performed in the dark. Cells were washed in PBS, harvested, re-suspended in 300 μL of PBS and then analyzed by flow cytometry (Fortessa, BD Bioscience). Data analysis was performed using FlowJo software (Tree star Inc.). […] FIG. 2F is a representative FACS tracing showing 96 hours of hypoxia increased mitochondrial mass. The effects of hypoxia treatment were confirmed using immunoblot analysis with TOMM20, a marker of mitochondrial mass.

The subject of test [3] is MCF7 cells. Put plainly: ALDH activity by FACS (ALDEFLUOR kit). The conditions noted are these: 2.5 mM; FIGS. 11C-D. As for the experimental part: The present approach further includes methods of analyzing the effects of hypoxia on CSCs by examining relative changes of CSC markers. For example, aldehyde dehydrogenase (ALDH) activity is routinely used as a marker for CSCs. It should be appreciated by those in the art that other CSC markers may be used. ALDH activity was assessed by FACS analysis in MCF7 cells cultured for 72 hours in normoxia (21% 02) or hypoxia (1% 02). The ALDEFLUOR kit (StemCell Technologies) was used to isolate the population with high ALDH enzymatic activity by FACS (Fortessa, BD Bioscence). Briefly, 1×10^5 MCF7 cells were incubated in 1 ml ALDEFLUOR assay buffer containing ALDH substrate (5 μl/ml) for 40 minutes at 37° C. In each experiment, a sample of cells was stained under identical conditions with 30 μM of diethylaminobenzaldehyde (DEAB), a specific ALDH inhibitor, as a negative control. The ALDEFLUOR-positive population was established in according to the manufacturer's instructions and was evaluated in 3×10^4 cells. Data analysis was performed using FlowJo software (Tree star Inc.).
On the technique in general: In flow cytometry, cells or beads pass a laser one at a time.

Turning to `O=C(Nc1ccc([N+](=O)[O-])cc1Cl)c1cc(Cl)ccc1O` [Niclosamide], the IC50 in the test with CSC propagation (Table 3, values given with nM) was found to be 100 nM.
As for `CC(C)(C)C(O)/C=C/c1ccc2c(c1)OCO2` (stereo not shown) [Stiripentol], the IC50 in the test with CSC propagation (Table 3, values in mM) lay within 10000 to 50000 nM.
As to `COc1nc2ccc(Br)cc2cc1[C@@H](c1ccccc1)[C@@](O)(CCN(C)C)c1cccc2ccccc12` [Bedaquiline], the IC50 in the test with CSC propagation (Table 3, values in mM) was 1000 nM.
On to `CCOC(=O)[C@@]1(CCCCCCOc2ccc(Cl)cc2)CO1` [Etomoxir], for which, in the test on MCF7 cells [1], the “basal and Valproic acid-augmented CSC propagation (mammosphere formation)” value was “inhibit”. Further, the IC50 in the test on CSC propagation (Table 3, values in mM) is below 200000 nM.
In the case of `COc1ccc2cc3[n+](cc2c1OC)CCc1cc2c(cc1-3)OCO2` [Berberine], the IC50 in the test with CSC propagation (Table 3, values in mM) came to 1000 nM.
Consider `CC(=O)O[C@H]1C(=O)[C@@]2(C)[C@H]([C@H](OC(=O)c3ccccc3)[C@]3(O)C[C@H](OC(=O)[C@H](O)[C@@H](NC(=O)c4ccccc4)c4ccccc4)C(C)=C1C3(C)C)[C@]1(OC(C)=O)CO[C@@H]1C[C@@H]2O` [Paclitaxel], for which the “CSC resistance to treatment (measured by mammosphere formation)” value in the test on MCF7 cells [1] (MCF7 cells, FIGS. 5A-B) was “a fraction of CSCs is resistant”.
Consider `CC[C@H]1OC(=O)[C@H](C)[C@@H](O[C@H]2C[C@@](C)(OC)[C@@H](O)[C@H](C)O2)[C@H](C)[C@@H](O[C@@H]2O[C@H](C)C[C@H](N(C)C)[C@H]2O)[C@](C)(O)C[C@@H](C)CN(C)[C@H](C)[C@@H](O)[C@]1(C)O` [Azithromycin], for which the IC50 in the test on CSC propagation (Table 3, values in mM) lay in the range of 50000 to 100000 nM.
Still for that read-out and setting: for `C[C@H]1c2cccc(O)c2C(=O)C2=C(O)[C@]3(O)C(=O)C(C(N)=O)=C(O)[C@@H](N(C)C)[C@@H]3[C@@H](O)[C@@H]21` [Doxycycline] the value was 5000 nM; for `O=C1C(O)=C([C@H]2CC[C@H](c3ccc(Cl)cc3)CC2)C(=O)c2ccccc21` [Atovaquone], 1000 nM.
For `CCN(CC)CCCC(C)Nc1ccnc2cc(Cl)ccc12` (stereo not shown) [Chloroquine], the IC50 in the test on CSC propagation was below 25000 nM.
Regarding `CCc1c2c(nc3ccc(OC(=O)N4CCC(N5CCCCC5)CC4)cc13)-c1cc3c(c(=O)n1C2)COC(=O)[C@]3(O)CC` [Irinotecan], the IC50 with CSC propagation (Table 3, values given with nM) was determined as 500 nM.
For `C1CCC(C(CC2CCCCN2)C2CCCCC2)CC1` (stereo not shown) [Perhexiline], the “basal and Valproic acid-augmented CSC propagation (mammosphere formation)” value with MCF7 cells [1] was “inhibit”. Further, in the test with CSC propagation (Table 3, values given with nM), the IC50 is below 100 nM.
Turning to `CCCC(CCC)C(=O)O` [Valproic acid], the mammosphere formation result with MCF7 cells [1] (MCF7 cells, FIG. 11B) was “increases”. For the same molecule, the “increase in mitochondrial mass” value in the test with MCF7 cells [2] is listed as “up to 3 fold”. The “increase in ALDH activity” value with MCF7 cells [3] is reported as above 1.5 fold.
For the molecule `CNC(=O)c1cc(Oc2ccc(NC(=O)Nc3ccc(Cl)c(C(F)(F)F)c3)cc2)ccn1` [Sorafenib], the IC50 in the test with CSC propagation (Table 3, values in mM) lay within 500 to 1000 nM.
Turning to `O=C1O[C@H]([C@@H](O)CO)C(O)=C1O` [Vitamin C, ascorbic acid], the IC50 in the test on MCF7 cells [1] was around 500 µM; in the test with CSC propagation (Table 3, values in mM), 1e+06 nM. The “Valproic acid-augmented CSC propagation (mammosphere formation)” value in the test with MCF7 cells [1] was “sufficient to inhibit”. Moreover, the “potency under Valproic acid-augmented conditions compared to basal conditions” value in the test on MCF7 cells [1] (versus previously published results under basal conditions (Bonuccelli et al. 2017)) is “two times as potent”.
Regarding `O=CC[C@@H](O)[C@H](O)[C@H](O)CO` [2-DG, 2-deoxy-D-glucose], the IC50 with MCF7 cells [1] is 1000 µM; in the test with CSC propagation (Table 3, values in mM) it was 1e+07 to 2e+07 nM. In addition, in the test with MCF7 cells [1], the “Valproic acid-augmented CSC propagation (mammosphere formation)” value is on record as “sufficient to inhibit”.
